Reference: paper PMC12147714 (FEMS Microbiology Letters, 2025)
Like-named read-outs stand apart in the source and are kept apart here.

How the values were obtained:
SPM-1 = SPM-1 (Pseudomonas aeruginosa, UniProt Q8G9Q0); assay: IC50, inhibition of cephalothin hydrolysis by crude extract
VIM-2 = VIM-2 (Escherichia coli, UniProt Q5U7L7); assay: as above
IMP-10 [1] = molecular target: T1, IMP-10 (Serratia marcescens, UniProt P52699, V49F); assay: as above
VIM-1 = VIM-1 (Pseudomonas aeruginosa, UniProt A0A0F7KYQ8); assay: as above
IMP-1 = IMP-1 (Serratia marcescens, UniProt P52699); assay: as above
Chain of IMP-1 (P52699 19-246 limits assumed): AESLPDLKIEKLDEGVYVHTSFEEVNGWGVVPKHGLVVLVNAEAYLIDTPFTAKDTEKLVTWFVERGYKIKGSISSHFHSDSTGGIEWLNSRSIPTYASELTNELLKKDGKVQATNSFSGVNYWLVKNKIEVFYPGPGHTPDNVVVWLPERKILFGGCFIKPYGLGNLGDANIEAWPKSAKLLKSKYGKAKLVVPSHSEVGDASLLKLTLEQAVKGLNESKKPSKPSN

IMP-13 = IMP-13 (Pseudomonas aeruginosa, UniProt Q7WYA8); assay: as above
Chain of IMP-13 (Q7WYA8 21-246): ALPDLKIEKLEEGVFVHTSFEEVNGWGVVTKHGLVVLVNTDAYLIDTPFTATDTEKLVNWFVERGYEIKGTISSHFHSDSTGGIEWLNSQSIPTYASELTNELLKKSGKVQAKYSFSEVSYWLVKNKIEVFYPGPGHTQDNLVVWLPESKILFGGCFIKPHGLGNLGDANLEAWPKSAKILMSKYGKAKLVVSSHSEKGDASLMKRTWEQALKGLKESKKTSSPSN

IMP-producers = tested on: IMP-producers; parameters: method as in Hamrick et al. 2020, Le Terrier et al. 2024; conditions: ref Hamrick et al. 2020, Le Terrier et al. 2024; cited from earlier work
[2] = tested on: PAO1 TnoprD producing KPC-2; assay type: cell-based, Pseudomonas aeruginosa; conditions: KPC-2 TnoprD; antibiotic alone
Experimental: (§1) The fractional inhibitory concentration index (FICI) was calculated and interpreted as follows: the MIC of drug A in combination/the MIC of drug A alone + the MIC of drug B in combination/the MIC drug B alone. FICI ≤ 0.5 = synergy; 0.5 < FICI ≤ 1 = additive; FICI 1 < FICI < 2 = indifference, and FICI ≥ 2 = antagonism. All susceptibility testing/checkerboard assays were performed in triplicate.

PAO1 producing IMP-13 = assay: MIC and checkerboard by broth microdilution, recombinant strain; assay type: cell-based, Pseudomonas aeruginosa; conditions: antibiotic alone
Text: (§2) Pseudomonas aeruginosa isolate, PAO1, was used alongside its isogenic counterpart, PAO1 TnoprD, which lacks a functional OprD porin (Held et al. [2012]). β-lactamases, blaIMP-1, blaIMP-10, blaIMP-13, blaNDM-1, blaSPM-1, blaVIM-1, blaVIM-2, and blaKPC-2, had previously been cloned into the pUCP24 shuttle vector (Bouvier et al. [2025]), and were transformed by electroporation into both PAO1 and PAO1 TnoprD.
as §1, with “. MICs of DMSA, CAZ, FEP and checkerboards for the combinations, CAZ/DMSA and FEP/DMSA, were performed for all clinical isolates. All susceptibility testing results were interpreted according to CLSI guidelines (CLSI [2023]). The” for “The”

PAO1 producing VIM-2 = assay: as above; assay type: cell-based, Pseudomonas aeruginosa; conditions: antibiotic alone
Text: as §2
as §1, with “. MICs of DMSA, CAZ, FEP and checkerboards for the combinations, CAZ/DMSA and FEP/DMSA, were performed for all clinical isolates. All susceptibility testing results were interpreted according to CLSI guidelines (CLSI [2023]). The” for “The”

[3] = tested on: PAO1 TnoprD producing IMP-13; assay: as above; assay type: cell-based, Pseudomonas aeruginosa; conditions: IMP-13 TnoprD; antibiotic alone
Text: as §2
as §1, with “. MICs of DMSA, CAZ, FEP and checkerboards for the combinations, CAZ/DMSA and FEP/DMSA, were performed for all clinical isolates. All susceptibility testing results were interpreted according to CLSI guidelines (CLSI [2023]). The” for “The”

PAO1 producing VIM-1 = assay: as above; assay type: cell-based, Pseudomonas aeruginosa; conditions: antibiotic alone
Text: as §2
as §1, with “. MICs of DMSA, CAZ, FEP and checkerboards for the combinations, CAZ/DMSA and FEP/DMSA, were performed for all clinical isolates. All susceptibility testing results were interpreted according to CLSI guidelines (CLSI [2023]). The” for “The”

[4] = tested on: PAO1 TnoprD producing IMP-10; assay: as above; assay type: cell-based, Pseudomonas aeruginosa; conditions: IMP-10 TnoprD; antibiotic alone
Text: as §2
as §1, with “. MICs of DMSA, CAZ, FEP and checkerboards for the combinations, CAZ/DMSA and FEP/DMSA, were performed for all clinical isolates. All susceptibility testing results were interpreted according to CLSI guidelines (CLSI [2023]). The” for “The”

[5] = tested on: PAO1 TnoprD producing SPM-1; assay: as above; assay type: cell-based, Pseudomonas aeruginosa; conditions: SPM-1 TnoprD; antibiotic alone
Text: as §2
as §1, with “. MICs of DMSA, CAZ, FEP and checkerboards for the combinations, CAZ/DMSA and FEP/DMSA, were performed for all clinical isolates. All susceptibility testing results were interpreted according to CLSI guidelines (CLSI [2023]). The” for “The”

PAO1 producing SPM-1 = assay: as above; assay type: cell-based, Pseudomonas aeruginosa; conditions: antibiotic alone
Text: as §2
as §1, with “. MICs of DMSA, CAZ, FEP and checkerboards for the combinations, CAZ/DMSA and FEP/DMSA, were performed for all clinical isolates. All susceptibility testing results were interpreted according to CLSI guidelines (CLSI [2023]). The” for “The”

[6] = tested on: PAO1 TnoprD producing VIM-2; assay: as above; assay type: cell-based, Pseudomonas aeruginosa; conditions: VIM-2 TnoprD; antibiotic alone
Text: as §2
as §1, with “. MICs of DMSA, CAZ, FEP and checkerboards for the combinations, CAZ/DMSA and FEP/DMSA, were performed for all clinical isolates. All susceptibility testing results were interpreted according to CLSI guidelines (CLSI [2023]). The” for “The”

PAO1 producing IMP-1 = assay: as above; assay type: cell-based, Pseudomonas aeruginosa; conditions: antibiotic alone
Text: as §2
as §1, with “. MICs of DMSA, CAZ, FEP and checkerboards for the combinations, CAZ/DMSA and FEP/DMSA, were performed for all clinical isolates. All susceptibility testing results were interpreted according to CLSI guidelines (CLSI [2023]). The” for “The”

[7] = tested on: PAO1 TnoprD producing IMP-1; assay: as above; assay type: cell-based, Pseudomonas aeruginosa; conditions: IMP-1 TnoprD; antibiotic alone
Experimental: as §1

PAO1 producing NDM-1 = assay: as above; assay type: cell-based, Pseudomonas aeruginosa; conditions: antibiotic alone
Experimental: as §1

PAO1 producing IMP-10 = assay: as above; assay type: cell-based, Pseudomonas aeruginosa; conditions: antibiotic alone
Experimental: as §1

PAO1 producing KPC-2 = assay type: cell-based, Pseudomonas aeruginosa; conditions: antibiotic alone
Experimental: as §1

[8] = tested on: PAO1 and PAO1 TnoprD producing one of eight different carbapenemases; assay: MIC and checkerboard, isogenic strains as a group; assay type: cell-based, Pseudomonas aeruginosa
Text: as §2
as §1, with “. MICs of DMSA, CAZ, FEP and checkerboards for the combinations, CAZ/DMSA and FEP/DMSA, were performed for all clinical isolates. All susceptibility testing results were interpreted according to CLSI guidelines (CLSI [2023]). The” for “The”

[9] = tested on: PAO1 TnoprD producing NDM-1; assay: MIC and checkerboard by broth microdilution, recombinant strain; assay type: cell-based, Pseudomonas aeruginosa; conditions: NDM-1 TnoprD; antibiotic alone
Experimental: as §1

[10] = tested on: PAO1 TnoprD producing VIM-1; assay: as above; assay type: cell-based, Pseudomonas aeruginosa; conditions: VIM-1 TnoprD; antibiotic alone
Experimental: as §1

IMP-10 [11] = molecular target: T1, IMP-10; conditions: ref Le Terrier et al. 2024; cited from earlier work

T1 sequence (P52699 19-246 V49F): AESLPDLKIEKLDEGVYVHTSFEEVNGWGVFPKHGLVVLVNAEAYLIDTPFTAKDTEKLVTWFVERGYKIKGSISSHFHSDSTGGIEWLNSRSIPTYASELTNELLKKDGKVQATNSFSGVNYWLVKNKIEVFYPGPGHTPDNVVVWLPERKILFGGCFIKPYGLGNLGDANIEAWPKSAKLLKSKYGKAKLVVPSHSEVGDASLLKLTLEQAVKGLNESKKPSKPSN
Chain of SPM-1 (Q8G9Q0 entry or part of it): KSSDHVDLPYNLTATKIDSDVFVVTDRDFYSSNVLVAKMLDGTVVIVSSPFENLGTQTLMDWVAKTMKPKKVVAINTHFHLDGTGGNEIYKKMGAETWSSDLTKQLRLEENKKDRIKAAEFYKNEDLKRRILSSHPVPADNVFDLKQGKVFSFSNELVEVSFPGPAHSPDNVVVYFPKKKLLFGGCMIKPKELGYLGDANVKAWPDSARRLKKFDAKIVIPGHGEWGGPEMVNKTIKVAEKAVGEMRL

Row | Structure (SMILES) | MIC [2] [µg/mL] | MIC (PAO1 producing IMP-13) [µg/mL] | MIC (PAO1 producing VIM-2) [µg/mL] | MIC [3] [µg/mL] | MIC (PAO1 producing VIM-1) [µg/mL] | MIC [4] [µg/mL] | MIC [5] [µg/mL] | MIC (PAO1 producing SPM-1) [µg/mL] | MIC [6] [µg/mL] | MIC (PAO1 producing IMP-1) [µg/mL] | MIC [7] [µg/mL] | MIC (PAO1 producing NDM-1) [µg/mL] | MIC (PAO1 producing IMP-10) [µg/mL] | MIC (PAO1 producing KPC-2) [µg/mL] | MIC [9] [µg/mL] | further results
1 | NCCN[C@H]1CC[C@H](CC(=O)N[C@H]2Cc3cccc(C(=O)O)c3OB2O)CC1 [TAN, taniborbactam] | – | – | – | – | – | – | – | – | – | – | – | – | – | – | – | IC50 (SPM-1; SPM-1, 100 μM cephalothin, pH 7.0): 2.7 µM; IC50 (VIM-2; VIM-2, 100 μM cephalothin, pH 7.0): 0.5 µM; IC50 (IMP-10 [1]; IMP-10, 100 μM cephalothin, pH 7.0): > 1000 µM; IC50 (VIM-1; VIM-1, 100 μM cephalothin, pH 7.0): 0.8 µM; IC50 (IMP-1; IMP-1, 100 μM cephalothin, pH 7.0): > 1000 µM; IC50 (IMP-13; IMP-13, 100 μM cephalothin, pH 7.0): > 1000 µM; activity against IMP-producers (IMP-producers): poor activity
2 | C[C@@H](O)[C@H]1C(=O)N2C(C(=O)O)=C(SCCN=CN)C[C@H]12 [IPM, imipenem] | 512 | 1 | 4 | 8 | 64 | 64 | 16 | 2 | 32 | 16 | 64 | 32 | 8 | – | – | –
3 | C[C@@H](O)[C@H]1C(=O)N2C(C(=O)O)=C(S[C@@H]3CN[C@H](C(=O)N(C)C)C3)[C@H](C)[C@H]12 [MEM, meropenem] | 512 | 4 | 4 | 8 | 64 | 256 | 64 | 32 | 8 | 64 | – | – | – | 256 | 256 | interaction with DMSA as indicated by the FICIs ([8]; SPM-1 strains, DMSA 200 and 300 mg/l): synergy (FICI ≤ 0.5 = synergy); interaction with DMSA as indicated by the FICIs ([8]; strains producing IMP-1, IMP-10 or IMP-13, with and without functional OprD, DMSA 200 and 300 mg/l): synergy (FICI ≤ 0.5 = synergy)
4 | CO/N=C(\C(=O)N[C@@H]1C(=O)N2C(C(=O)[O-])=C(C[N+]3(C)CCCC3)CS[C@H]12)c1csc(N)n1 [FEP, cefepime] | 512 | 16 | 2 | 16 | 512 | 256 | 64 | 64 | 2 | 512 | 512 | 256 | 256 | 512 | 256 | interaction with DMSA as indicated by the FICIs ([8]; strains producing IMP-1, IMP-10 or IMP-13, with and without functional OprD, all three DMSA concentrations (100, 200, 300 mg/l)): synergy (FICI ≤ 0.5 = synergy); MIC [10]: 512 µg/mL
5 | O=C(O)c1c(F)ccc2c1OB(O)[C@@H]1C[C@H]21 [XER, xeruborbactam] | – | – | – | – | – | – | – | – | – | – | – | – | – | – | – | IC50 (SPM-1): > 1000 µM; IC50 (VIM-2): 0.1 µM; IC50 (IMP-10 [1]): 73 µM; IC50 (VIM-1): 0.5 µM; IC50 (IMP-1): 2.7 µM; IC50 (IMP-13): 3.6 µM; activity against IMP-10 (IMP-10 [11]): limited activity
